This is an account of results in patent US11325899B2, “Benzofurane and benzothiophene derivatives as PGE2 receptor modulators” (IDORSIA PHARMACEUTICALS LTD, priority 2017, dated 2022).

Common to all, as to format: cell-based
The target of one assay is T1, EP2 receptor (Homo sapiens, UniProt P43116).
T1 construct: SF295 glioblastoma cells express high endogenous EP2 and no EP4; host or cells: SF295 glioblastoma cells
Briefly: hEP2 cAMP assay (SF295 glioblastoma cells, HTRF cAMP, PGE2 stimulation). The following applies: antagonistic activity. The gist of the method: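 SF295 glioblastoma cells with endogenous EP2 and no EP4, in HBSS/HEPES/BSA with 2 mM IBMX, pre-incubated 45 min at room temperature with compound, then stimulated 30 min with 75 nM PGE2 (EC80). cAMP measured by HTRF; IC50 fitted from duplicate % cAMP versus DMSO control.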

A further assay deals with T2, PTGER4 (EP4) (Homo sapiens, UniProt P35408).
T2 construct: host or cells: HEK 293 (PathHunter PTGER4 b-arrestin cell line)
Briefly: hEP4 b-arrestin assay (PathHunter HEK 293 PTGER4 b-arrestin cells). The following applies: antagonistic activity, beta-arrestin assay; read-out: hEP4 b-arr IC50. The gist of the method:
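PathHunter HEK 293 cells expressing ProLink-tagged human EP4 and EA-β-arrestin 2, seeded 24 h before. Compounds (10 μM–2 nM or 1 μM–0.2 nM) preincubated 15 min at 37 °C, then 20 nM PGE2 (EC80) for 120 min at 37 °C. β-gal complementation luminescence read; IC50 from duplicate dose-response curves versus DMSO control.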

A further assay has as its target T3, PTGER2 (EP2) (Homo sapiens, UniProt P43116).
T3 construct: host or cells: HEK 293 (PathHunter PTGER2 b-arrestin cell line)
Nature of the assay: hEP2 b-arrestin assay (PathHunter HEK 293 PTGER2 b-arrestin cells). The following applies: antagonistic activity, beta-arrestin assay; read-out: hEP2 b-arr IC50. Summed up:
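PathHunter HEK293 cells with ProLink-tagged EP2 and EA-β-arrestin 2 preincubated 15 min at 37 °C with compound (10 μM-2 nM or 1 μM-0.2 nM), then stimulated 120 min with 5 μM PGE2 (EC80). β-gal complementation read by chemiluminescence; IC50 from duplicate dose-response versus DMSO.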

T3 sequence (P43116 whole entry): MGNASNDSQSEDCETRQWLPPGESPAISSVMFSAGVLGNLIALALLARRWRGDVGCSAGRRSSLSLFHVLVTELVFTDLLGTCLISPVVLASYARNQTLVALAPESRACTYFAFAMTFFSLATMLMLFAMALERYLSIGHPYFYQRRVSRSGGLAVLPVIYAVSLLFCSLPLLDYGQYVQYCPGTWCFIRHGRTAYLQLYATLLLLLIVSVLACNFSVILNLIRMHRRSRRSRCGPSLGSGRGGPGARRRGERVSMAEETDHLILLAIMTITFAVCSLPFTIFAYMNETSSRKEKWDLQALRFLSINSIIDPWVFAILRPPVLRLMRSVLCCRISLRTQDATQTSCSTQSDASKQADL
T1 sequence (P43116 whole entry): as above
T2 sequence (P35408 whole entry): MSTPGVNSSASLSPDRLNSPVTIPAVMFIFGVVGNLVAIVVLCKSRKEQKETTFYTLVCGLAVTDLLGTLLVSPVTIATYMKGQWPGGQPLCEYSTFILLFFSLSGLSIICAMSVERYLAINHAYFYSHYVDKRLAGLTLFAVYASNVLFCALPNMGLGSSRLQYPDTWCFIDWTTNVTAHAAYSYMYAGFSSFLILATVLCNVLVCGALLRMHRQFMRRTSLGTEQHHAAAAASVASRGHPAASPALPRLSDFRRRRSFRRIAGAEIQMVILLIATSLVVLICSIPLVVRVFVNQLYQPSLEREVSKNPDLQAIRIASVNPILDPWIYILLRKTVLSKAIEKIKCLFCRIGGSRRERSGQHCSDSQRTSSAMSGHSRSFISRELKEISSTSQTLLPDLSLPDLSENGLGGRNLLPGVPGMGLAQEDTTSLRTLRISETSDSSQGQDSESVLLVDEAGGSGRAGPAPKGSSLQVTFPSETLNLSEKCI

Turning to `CCOc1cc(-c2cc(NCCc3c(C)sc4c(C)cccc34)ncn2)sc1C(=O)O` [Example 36, 5-{6-[2-(2,7-Dimethyl-benzo[b]thiophen-3-yl)-ethylamino]-pyrimidin-4-yl}-3-ethoxy-thiophene-2-carboxylic acid], the figures for the IC50 against EP2 receptor, at PTGER4 (EP4) and on PTGER2 (EP2) were 4 nM, 26 nM and 1 nM, respectively.

As for `CCOc1cc(-c2cc(NCCc3c(C)oc4c(C)cc(F)cc34)ncn2)sc1C(=O)O` [Example 37, 3-Ethoxy-5-{6-[2-(5-fluoro-2,7-dimethyl-benzofuran-3-yl)-ethylamino]-pyrimidin-4-yl}-thiophene-2-carboxylic acid], the IC50 – broadly, the concentration that gives 50% inhibition – against EP2 receptor came out at 2 nM; on PTGER4 (EP4), 42 nM; on PTGER2 (EP2) it was 2 nM.

For the molecule `CCOc1cc(-c2cc(NCCc3c(C)oc4c(OC)cc(Cl)cc34)ncn2)sc1C(=O)O` [Example 38, 5-{6-[2-(5-Chloro-7-methoxy-2-methyl-benzofuran-3-yl)-ethylamino]-pyrimidin-4-yl}-3-ethoxy-thiophene-2-carboxylic acid], the results for the IC50 against EP2 receptor, at PTGER4 (EP4) and on PTGER2 (EP2) were 12 nM, 12 nM and 9 nM, respectively.

In the case of `CCOc1cc(-c2cc(NCCc3c(CC)oc4c(C)cc(F)cc34)ncn2)sc1C(=O)O` [Example 39, 3-Ethoxy-5-{6-[2-(2-ethyl-5-fluoro-7-methyl-benzofuran-3-yl)-ethylamino]-pyrimidin-4-yl}-thiophene-2-carboxylic acid], the values for the IC50 on EP2 receptor, at PTGER4 (EP4) and at PTGER2 (EP2) were 28 nM, 50 nM and 31 nM, respectively.

For `COc1cc(-c2cc(NCCc3c(C)sc4c(OC)ccc(Cl)c34)ncn2)ccc1C(=O)O` [Example 40, 4-{6-[2-(4-Chloro-7-methoxy-2-methyl-benzo[b]thiophen-3-yl)-ethylamino]-pyrimidin-4-yl}-2-methoxy-benzoic acid], the IC50 against EP2 receptor stood at 94 nM; on PTGER4 (EP4), 680 nM; at PTGER2 (EP2), 48 nM.

As to `CCSc1cc(-c2cc(NCCc3c(C)sc4c(C)cccc34)ncn2)ccc1C(=O)O` [Example 42, 4-{6-[2-(2,7-Dimethyl-benzo[b]thiophen-3-yl)-ethylamino]-pyrimidin-4-yl}-2-ethylsulfanyl-benzoic acid], the IC50 against EP2 receptor was 14 nM; on PTGER4 (EP4), 328 nM; on PTGER2 (EP2), 4 nM.

Consider `CCSc1cc(-c2cc(NCCc3c(C)sc4ccccc34)ncn2)ccc1C(=O)O` [Example 43, 2-Ethylsulfanyl-4-{6-[2-(2-methyl-benzo[b]thiophen-3-yl)-ethylamino]-pyrimidin-4-yl}-benzoic acid], for which the IC50 at EP2 receptor was 4 nM; at PTGER4 (EP4), 1080 nM; on PTGER2 (EP2) it was 3 nM.

For `CCSc1cc(-c2cc(NCCc3c(C)oc4ccccc34)ncn2)ccc1C(=O)O` [Example 44, 2-Ethylsulfanyl-4-{6-[2-(2-methyl-benzofuran-3-yl)-ethylamino]-pyrimidin-4-yl}-benzoic acid], the IC50 against EP2 receptor was found to be 4 nM; on PTGER4 (EP4) it was 1020 nM; at PTGER2 (EP2) it was 1 nM.

With `CCCc1cc(-c2cc(NCCc3c(C)sc4c(C)cc(F)cc34)ncn2)ccc1C(=O)O` [Example 45, 4-{6-[2-(5-Fluoro-2,7-dimethyl-benzo[b]thiophen-3-yl)-ethylamino]-pyrimidin-4-yl}-2-propyl-benzoic acid], the results for the IC50 against EP2 receptor, on PTGER4 (EP4) and on PTGER2 (EP2) were 48 nM, 57 nM and 20 nM, respectively.

Take `Cc1sc2c(C)cc(F)cc2c1CCNc1cc(-c2cc(C(F)(F)F)c(C(=O)O)s2)ncn1` [Example 46, 5-{6-[2-(5-Fluoro-2,7-dimethyl-benzo[b]thiophen-3-yl)-ethylamino]-pyrimidin-4-yl}-3-trifluoromethyl-thiophene-2-carboxylic acid]: the values for the IC50 at EP2 receptor, at PTGER4 (EP4) and on PTGER2 (EP2) were 31 nM, 93 nM and 46 nM, respectively.

For `CSc1cc(-c2cc(NCCc3c(C)sc4c(C)cccc34)ncn2)cc(F)c1C(=O)O` [Example 47, 4-{6-[2-(2,7-Dimethyl-benzo[b]thiophen-3-yl)-ethylamino]-pyrimidin-4-yl}-2-fluoro-6-methylsulfanyl-benzoic acid], the concentration for half-maximal inhibition (IC50) against EP2 receptor amounted to 12 nM; on PTGER4 (EP4), 807 nM; on PTGER2 (EP2), 10 nM.

As to `CSc1cc(-c2cc(NCCc3c(C)sc4c(C)cccc34)ncn2)cc(Cl)c1C(=O)O` [Example 50, 2-Chloro-4-{6-[2-(2,7-dimethyl-benzo[b]thiophen-3-yl)-ethylamino]-pyrimidin-4-yl}-6-methylsulfanyl-benzoic acid], the IC50 on EP2 receptor came out at 13 nM; at PTGER4 (EP4), 432 nM; on PTGER2 (EP2), 18 nM.

As for `CCOc1cc(-c2cc(NCCc3c(C)sc4c(C)cc(F)cc34)ncn2)sc1CC(=O)O` [Example 52, (3-Ethoxy-5-{6-[2-(5-fluoro-2,7-dimethyl-benzo[b]thiophen-3-yl)-ethylamino]-pyrimidin-4-yl}-thiophen-2-yl)-acetic acid], the IC50 against EP2 receptor was determined as 95 nM; at PTGER4 (EP4), 133 nM; on PTGER2 (EP2) it was 46 nM.

For `CCOc1cc(-c2cc(NCCc3c(C#N)sc4c(C)cc(F)cc34)ncn2)ccc1C(=O)O` [Example 53, 4-{6-[2-(2-Cyano-5-fluoro-7-methyl-benzo[b]thiophen-3-yl)-ethylamino]-pyrimidin-4-yl}-2-ethoxy-benzoic acid], the results for the IC50 on EP2 receptor, on PTGER4 (EP4) and on PTGER2 (EP2) were 7 nM, 34 nM and 9 nM, respectively.

In the case of `CCOc1cc(-c2cc(NCCc3c(C#N)sc4c(OC)cccc34)ncn2)ccc1C(=O)O` [Example 54, 4-{6-[2-(2-Cyano-7-methoxy-benzo[b]thiophen-3-yl)-ethylamino]-pyrimidin-4-yl}-2-ethoxy-benzoic acid], the values for the IC50 against EP2 receptor, on PTGER4 (EP4) and on PTGER2 (EP2) were 77 nM, 60 nM and 194 nM, respectively.

Regarding `CCOc1cc(-c2cc(NCCc3c(C)sc4c(OC)ccc(F)c34)ncn2)ccc1C(=O)O` [Example 55, 2-Ethoxy-4-{6-[2-(4-fluoro-7-methoxy-2-methyl-benzo[b]thiophen-3-yl)-ethylamino]-pyrimidin-4-yl}-benzoic acid], the half-maximal inhibitory concentration (IC50) against EP2 receptor turned out to be 40 nM; at PTGER4 (EP4) it was 117 nM; on PTGER2 (EP2), 15 nM.

Consider `CCOc1cc(-c2cc(NCCc3c(C)sc4c(C)cc(F)cc34)ncn2)ccc1C(=O)O` [Example 56, 2-Ethoxy-4-{6-[2-(5-fluoro-2,7-dimethyl-benzo[b]thiophen-3-yl)-ethylamino]-pyrimidin-4-yl}-benzoic acid], for which the concentration for half-maximal inhibition (IC50) is 19 nM at EP2 receptor, 47 nM at PTGER4 (EP4) and 13 nM on PTGER2 (EP2).

Turning to `CCOc1cc(-c2cc(NCCc3c(C)sc4c(OC)ccc(Cl)c34)ncn2)ccc1C(=O)O` [Example 57, 4-{6-[2-(4-Chloro-7-methoxy-2-methyl-benzo[b]thiophen-3-yl)-ethylamino]-pyrimidin-4-yl}-2-ethoxy-benzoic acid], the IC50 was found to be 44 nM on EP2 receptor, 287 nM on PTGER4 (EP4) and 17 nM at PTGER2 (EP2).

With `CCOc1cc(-c2cc(NCCc3c(Br)sc4c(C)cc(F)cc34)ncn2)ccc1C(=O)O` [Example 58, 4-{6-[2-(2-Bromo-5-fluoro-7-methyl-benzo[b]thiophen-3-yl)-ethylamino]-pyrimidin-4-yl}-2-ethoxy-benzoic acid], the 50% inhibitory concentration (IC50) stood at 17 nM against EP2 receptor, 454 nM at PTGER4 (EP4) and 12 nM on PTGER2 (EP2).

Consider `CCOc1cc(-c2cc(NCCc3c(Cl)sc4c(C)cc(F)cc34)ncn2)ccc1C(=O)O` [Example 59, 4-{6-[2-(2-Chloro-5-fluoro-7-methyl-benzo[b]thiophen-3-yl)-ethylamino]-pyrimidin-4-yl}-2-ethoxy-benzoic acid], for which the IC50 on EP2 receptor worked out at 12 nM; on PTGER4 (EP4), 625 nM; on PTGER2 (EP2), 15 nM.

For the molecule `CCOc1cc(-c2cc(NCCc3c(C)sc4c(C)cccc34)ncn2)ccc1C(=O)O` [Example 60, 4-{6-[2-(2,7-Dimethyl-benzo[b]thiophen-3-yl)-ethylamino]-pyrimidin-4-yl}-2-ethoxy-benzoic acid], the values for the IC50 against EP2 receptor, at PTGER4 (EP4) and at PTGER2 (EP2) were 15 nM, 372 nM and 7 nM, respectively.

Regarding `CCOc1cc(-c2cc(NCCc3c(C)sc4c(C)ccc(F)c34)ncn2)ccc1C(=O)O` [Example 61, 2-Ethoxy-4-{6-[2-(4-fluoro-2,7-dimethyl-benzo[b]thiophen-3-yl)-ethylamino]-pyrimidin-4-yl}-benzoic acid], the IC50 against EP2 receptor is 60 nM; at PTGER4 (EP4), 245 nM; at PTGER2 (EP2) it was 22 nM.

`CCOc1cc(-c2cc(NCCc3c(C)sc4c(C)c(F)ccc34)ncn2)ccc1C(=O)O` [Example 62, 2-Ethoxy-4-{6-[2-(6-fluoro-2,7-dimethyl-benzo[b]thiophen-3-yl)-ethylamino]-pyrimidin-4-yl}-benzoic acid]: the values for the IC50 against EP2 receptor, on PTGER4 (EP4) and on PTGER2 (EP2) were 14 nM, 499 nM and 12 nM, respectively.

Take `CCOc1cc(-c2cc(NCCc3c(C)sc4c(Cl)ccc(Cl)c34)ncn2)ccc1C(=O)O` [Example 63, 4-{6-[2-(4,7-Dichloro-2-methyl-benzo[b]thiophen-3-yl)-ethylamino]-pyrimidin-4-yl}-2-ethoxy-benzoic acid]: the IC50 was 64 nM against EP2 receptor, 461 nM at PTGER4 (EP4) and 27 nM on PTGER2 (EP2).
